This series in a line: pH of triazene water solution before, during and after 370 nm irradiation. In kind it is physicochemical. Particulars: 0.5 mM triazene in water, 370 nm light; for pH change during irradiation: 1 minute. On the procedure:
Referring to FIG. 5, 0.5 mM of triazenes 1a, 1g, and 1i were incubated in a water solution and the relative pH was measured before, during, and after irradiation with 370 nm light. […] Furthermore, the data notes that after irradiation has ceased, there is an immediate drop in pH consistent with the reversion of the scaffold to the trans-species.

The results in this text go back to US20240277847A1, “BENCH-STABLE TRIAZENE COMPOSITIONS FOR PROTEIN MODIFICATION” (ARIZONA BOARD OF REGENTS ON BEHALF OF THE UNIVERSITY OF …, priority 2021, published 2024).

With `O=[N+]([O-])c1ccc(N=NN2CCCCC2)cc1` [1a], the “pH change during irradiation” value is reported as “did not elicit notable pH change”.

With `c1ccc(N=NN2CCCCC2)cc1` [1g], the “pH change during irradiation” value is “notable increases of pH”.

For `COc1ccc(N=NN2CCCCC2)cc1` [1i], the “relative change in pH versus 1g” value is “over double that of 1g”.

As to `COc1ccc(N=Nc2ccc(O)cc2O)cc1` [2i], the “pH change during irradiation” value is “notable increases of pH”.
